Measurements taken from patent US20210388455A1 (priority 2020, published 2021).
Where two headings read alike, the source gives them in different places.

Columns and labels:
[1] = target: ACE2 binding to SARS-CoV-2 S1-RBD (Homo sapiens, UniProt Q9BYF1); test: ELISA of ACE2/S1-RBD inhibitory activity; design: species or system human ACE2 / SARS-CoV-2; settings: recombinant 2019-nCoV S1-RBD coated plate, read-out: IC50 inhibiting ACE2 binding to SARS-CoV-2 S1-RBD
SARS-CoV-2 [2] = assay type: cell-based
VeroE6-EGFP cells = settings: no virus
SARS-CoV-2 [3] = settings: known values of FDA approved drugs; cited from earlier work

Chain of ACE2 binding to SARS-CoV-2 S1-RBD (Q9BYF1 18-740): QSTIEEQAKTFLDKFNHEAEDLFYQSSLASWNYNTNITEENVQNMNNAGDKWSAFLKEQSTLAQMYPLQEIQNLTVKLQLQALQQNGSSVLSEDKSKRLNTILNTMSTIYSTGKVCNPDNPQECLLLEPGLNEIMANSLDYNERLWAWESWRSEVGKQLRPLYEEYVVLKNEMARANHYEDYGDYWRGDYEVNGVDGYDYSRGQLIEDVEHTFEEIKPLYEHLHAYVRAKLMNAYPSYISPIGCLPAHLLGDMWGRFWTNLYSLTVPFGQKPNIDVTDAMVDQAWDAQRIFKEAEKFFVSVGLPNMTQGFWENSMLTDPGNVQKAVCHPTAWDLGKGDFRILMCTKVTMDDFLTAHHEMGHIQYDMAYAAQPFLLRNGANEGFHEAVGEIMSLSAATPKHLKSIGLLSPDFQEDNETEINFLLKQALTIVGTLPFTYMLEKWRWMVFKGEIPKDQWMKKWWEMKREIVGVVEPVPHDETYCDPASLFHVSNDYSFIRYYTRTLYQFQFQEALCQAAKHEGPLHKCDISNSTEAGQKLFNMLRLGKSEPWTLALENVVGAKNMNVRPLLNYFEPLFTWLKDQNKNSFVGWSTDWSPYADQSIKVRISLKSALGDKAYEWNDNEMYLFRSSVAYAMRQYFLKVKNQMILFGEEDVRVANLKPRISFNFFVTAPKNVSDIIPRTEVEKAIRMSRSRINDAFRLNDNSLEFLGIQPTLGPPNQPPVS

Compound	IC50 [1] [µM]	EC50 (SARS-CoV-2 [2]) [µM]	CC50 (VeroE6-EGFP cells) [µM]	EC50 (SARS-CoV-2 [3]) [µM]
Kobophenol A	1.81 ± 0.04	71.6	> 100	
CC(C)(C)NC(=O)[C@@H]1CN(Cc2cccnc2)CCN1C[C@@H](O)C[C@@H](Cc1ccccc1)C(=O)N[C@H]1c2ccccc2C[C@H]1O [Indinavir]				59.1
Nc1nc2c(ncn2CCC(CO)CO)c(=O)[nH]1 [Penciclovir]				96
